According to publication PMC10041525, “New Dual Inhibitors of Bacterial Topoisomerases with Broad-Spectrum Antibacterial Activity and In Vivo Efficacy against Vancomycin-Intermediate Staphylococcus aureus” (Journal of Medicinal Chemistry, 2023):
Converted amounts (≈) assume the structure as drawn. “And” between values parts separate entries of the source, which are not always exact repeats. Equal entries are not always repeated. Where two headings read alike, the source gives them in different places.

Tests used:
[1] = molecular target: T1, human DNA topoisomerase IIα (Homo sapiens, UniProt P11388); assay: DNA relaxation assay; format: biochemical
T1 construct: purchased Inspiralis
T1 sequence (P11388 whole entry): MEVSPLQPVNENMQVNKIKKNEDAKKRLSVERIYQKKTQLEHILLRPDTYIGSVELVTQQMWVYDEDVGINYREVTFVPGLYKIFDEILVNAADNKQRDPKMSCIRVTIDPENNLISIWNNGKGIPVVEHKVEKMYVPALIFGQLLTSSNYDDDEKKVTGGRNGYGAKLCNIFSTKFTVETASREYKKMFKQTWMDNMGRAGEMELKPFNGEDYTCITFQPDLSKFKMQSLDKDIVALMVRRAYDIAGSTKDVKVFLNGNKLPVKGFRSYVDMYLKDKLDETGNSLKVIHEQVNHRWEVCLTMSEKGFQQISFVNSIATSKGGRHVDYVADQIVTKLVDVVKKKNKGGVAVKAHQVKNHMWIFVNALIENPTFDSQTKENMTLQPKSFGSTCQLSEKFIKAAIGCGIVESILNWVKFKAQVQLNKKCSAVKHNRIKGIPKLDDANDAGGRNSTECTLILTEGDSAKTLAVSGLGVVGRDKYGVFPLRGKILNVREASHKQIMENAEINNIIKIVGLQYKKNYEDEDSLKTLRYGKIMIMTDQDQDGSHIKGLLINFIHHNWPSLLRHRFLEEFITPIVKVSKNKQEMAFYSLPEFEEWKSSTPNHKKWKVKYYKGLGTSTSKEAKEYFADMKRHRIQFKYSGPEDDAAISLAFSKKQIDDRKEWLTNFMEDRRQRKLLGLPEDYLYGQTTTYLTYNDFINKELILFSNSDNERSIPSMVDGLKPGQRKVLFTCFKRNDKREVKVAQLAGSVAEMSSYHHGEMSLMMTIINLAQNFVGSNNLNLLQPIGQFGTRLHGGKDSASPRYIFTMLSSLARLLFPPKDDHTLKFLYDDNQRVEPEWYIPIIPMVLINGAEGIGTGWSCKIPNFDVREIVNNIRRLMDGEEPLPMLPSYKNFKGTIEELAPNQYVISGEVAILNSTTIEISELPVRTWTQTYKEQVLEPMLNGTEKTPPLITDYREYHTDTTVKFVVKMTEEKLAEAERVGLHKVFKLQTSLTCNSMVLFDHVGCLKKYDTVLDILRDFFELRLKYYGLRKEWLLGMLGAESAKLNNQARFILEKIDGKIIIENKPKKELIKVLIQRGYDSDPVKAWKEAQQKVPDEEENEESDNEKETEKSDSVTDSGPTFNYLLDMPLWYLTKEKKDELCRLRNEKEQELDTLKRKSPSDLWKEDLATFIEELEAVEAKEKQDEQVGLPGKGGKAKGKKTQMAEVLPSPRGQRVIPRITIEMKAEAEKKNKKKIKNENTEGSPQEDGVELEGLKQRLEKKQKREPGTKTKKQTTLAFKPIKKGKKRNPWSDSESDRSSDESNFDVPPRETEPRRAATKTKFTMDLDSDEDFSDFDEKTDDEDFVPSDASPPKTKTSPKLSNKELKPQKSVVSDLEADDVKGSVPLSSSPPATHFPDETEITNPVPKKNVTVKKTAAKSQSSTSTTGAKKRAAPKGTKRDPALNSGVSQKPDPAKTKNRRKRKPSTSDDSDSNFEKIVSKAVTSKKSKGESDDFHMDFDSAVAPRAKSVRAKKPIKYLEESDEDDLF
Method: Seven concentrations of the inhibitors were used to determine IC50 values which were then calculated with GraphPad Prism 6.0 software. Three independent measurements were performed to determine IC50 values, and mean values are reported as the final result.

[2] = tested on: Neisseria gonorrhoeae (n = 12); assay: MIC broth microdilution at IHMA Europe; format: cell-based; conditions: for MIC: Neisseria gonorrhoeae, read-out: MIC
[3] = tested on: Haemophilus influenzae (n = 14); assay: MIC broth microdilution at IHMA Europe; format: cell-based, H. influenzae; conditions: for MIC: Haemophilus influenzae, read-out: MIC
E. faecium (n = 13) = assay: MIC broth microdilution at IHMA Europe; format: cell-based; conditions: for MIC: Enterococcus faecium, read-out: MIC
S. pneumoniae (n = 12) = assay: MIC broth microdilution at IHMA Europe; format: cell-based; conditions: for MIC: Streptococcus pneumoniae, read-out: MIC
in vitro [4] = conditions: mouse
Method: The assay was performed in cryopreserved mouse hepatocytes. First, the vials were thawed, the suspension added to “thawing media” and centrifuged to pellet the hepatocytes. The cell pellet was resuspended in Williams medium E (Invitrogen A1217601). […] A mixture of midazolam, diclofenac, and bufuralol at 1 μM was used as a positive control. The incubation was carried out on a heater-shaker at 37 °C, in a 24-well Picoplate (round bottom, PerkinElmer), with total incubation volume of 700 μL. […] The plate was incubated at 37 °C for 60 s. A zero sample was taken by removing 100 μL to a 96-well plate, and the reaction was quenched by adding 100 μL of acetonitrile with 50 nM warfarin as the internal standard. […] The LC–MS/MS method was the same as described above in Chapter LogD Determination.

in vitro [5] = conditions: pH 7.4; for Clint (pred. in vivo) / half-life at 1 h, 1 µM: microsomes
Method: Liver microsomal fractions were purchased from XenoTech LLC, (KS, USA). […] To initiate the reaction, 1 mM NADPH was added. Samples were taken at 0, 5, 10, 20, 40, and 60 min. To terminate the reaction, cold acetonitrile with warfarin as an internal standard was added. LC–MS/MS was used to analyze the samples and determine the amount of remaining parent compound. The LC–MS/MS method was the same as described above in Chapter LogD Determination.

[6] = molecular target: T2, sodium Nav1.5 ion channel (Homo sapiens, UniProt Q14524); assay: patch-clamp on transfected CHO cells; format: cell-based
T2 construct: expressed in transfected cells; host or cells: CHO cells (stably transfected)
T2 sequence (Q14524 whole entry): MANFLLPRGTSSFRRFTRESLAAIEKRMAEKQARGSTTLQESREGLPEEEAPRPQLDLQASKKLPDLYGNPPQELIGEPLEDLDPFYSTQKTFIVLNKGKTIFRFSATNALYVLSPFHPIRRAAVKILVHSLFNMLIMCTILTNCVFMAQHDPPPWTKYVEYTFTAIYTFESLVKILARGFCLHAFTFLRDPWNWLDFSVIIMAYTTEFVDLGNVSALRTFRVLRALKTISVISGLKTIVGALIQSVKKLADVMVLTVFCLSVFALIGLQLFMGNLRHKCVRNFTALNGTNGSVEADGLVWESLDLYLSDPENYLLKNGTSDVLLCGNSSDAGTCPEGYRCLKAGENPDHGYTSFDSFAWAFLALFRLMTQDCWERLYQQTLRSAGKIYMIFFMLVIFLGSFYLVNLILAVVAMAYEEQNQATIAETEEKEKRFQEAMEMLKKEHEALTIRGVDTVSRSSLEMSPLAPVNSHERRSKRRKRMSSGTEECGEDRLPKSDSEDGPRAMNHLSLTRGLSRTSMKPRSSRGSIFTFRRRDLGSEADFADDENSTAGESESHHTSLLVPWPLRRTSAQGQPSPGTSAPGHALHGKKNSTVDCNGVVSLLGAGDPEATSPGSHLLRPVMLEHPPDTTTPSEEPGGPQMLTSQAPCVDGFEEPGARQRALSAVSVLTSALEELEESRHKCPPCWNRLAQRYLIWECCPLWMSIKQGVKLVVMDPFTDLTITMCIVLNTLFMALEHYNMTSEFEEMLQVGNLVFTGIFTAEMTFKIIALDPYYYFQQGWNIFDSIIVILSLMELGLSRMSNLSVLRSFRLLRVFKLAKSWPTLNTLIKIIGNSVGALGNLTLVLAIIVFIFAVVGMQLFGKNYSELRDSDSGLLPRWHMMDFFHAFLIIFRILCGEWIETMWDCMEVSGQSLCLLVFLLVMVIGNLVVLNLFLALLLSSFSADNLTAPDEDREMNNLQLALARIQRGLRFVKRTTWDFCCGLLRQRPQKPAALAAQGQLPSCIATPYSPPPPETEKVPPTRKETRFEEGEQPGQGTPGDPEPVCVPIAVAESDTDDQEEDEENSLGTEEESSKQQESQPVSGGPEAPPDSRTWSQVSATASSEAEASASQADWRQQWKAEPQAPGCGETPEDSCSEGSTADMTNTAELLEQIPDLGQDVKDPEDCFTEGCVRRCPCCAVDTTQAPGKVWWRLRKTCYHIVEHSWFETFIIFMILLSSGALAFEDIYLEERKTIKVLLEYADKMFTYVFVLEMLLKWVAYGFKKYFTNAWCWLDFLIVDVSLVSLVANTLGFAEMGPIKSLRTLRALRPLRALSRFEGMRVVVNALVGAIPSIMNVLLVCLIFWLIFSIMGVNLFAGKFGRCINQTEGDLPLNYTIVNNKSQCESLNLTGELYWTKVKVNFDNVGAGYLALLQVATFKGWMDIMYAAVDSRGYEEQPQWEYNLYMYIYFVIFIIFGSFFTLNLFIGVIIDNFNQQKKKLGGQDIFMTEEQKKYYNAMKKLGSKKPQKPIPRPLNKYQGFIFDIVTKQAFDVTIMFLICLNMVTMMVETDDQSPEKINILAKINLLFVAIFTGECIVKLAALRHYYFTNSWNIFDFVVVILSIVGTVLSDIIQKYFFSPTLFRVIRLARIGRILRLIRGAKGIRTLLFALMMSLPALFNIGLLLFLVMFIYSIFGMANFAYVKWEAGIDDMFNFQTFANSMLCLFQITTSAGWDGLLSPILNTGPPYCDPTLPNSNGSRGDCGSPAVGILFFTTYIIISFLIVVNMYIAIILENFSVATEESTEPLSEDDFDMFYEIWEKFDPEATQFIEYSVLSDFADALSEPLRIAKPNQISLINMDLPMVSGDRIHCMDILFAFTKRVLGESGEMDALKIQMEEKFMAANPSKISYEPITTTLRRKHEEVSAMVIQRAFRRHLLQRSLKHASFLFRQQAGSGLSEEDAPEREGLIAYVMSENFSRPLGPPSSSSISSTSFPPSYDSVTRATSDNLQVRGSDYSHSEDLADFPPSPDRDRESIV
Method: hERG and NaV1.5 inhibition was measured with the patch-clamp method on stably transfected CHO cells according to previously described procedures.[34] […] The normalized hERG/NaV1.5 current is reported as mean ± standard error of the mean (SEM, N = 5–6).

S. aureus DNA gyrase = S. aureus DNA gyrase (Staphylococcus aureus, UniProt P0A0K8); assay: gel-based supercoiling assay
Method: In all experiments, the activity of the
(§1) enzymes was determined prior to the testing of the compound and 1 unit (U) was defined as the
(§2) amount of enzyme required to just fully supercoil or decatenate the substrate. This amount of
(§3) enzyme was initially used in determination of control inhibitor activity. These experiments were
(§4) performed in duplicate. […] The final DMSO
(§5) concentration was 1% for all assays. All measurements were performed in quadruplicates. The
(§6) condition for each reaction were as follows:
− S. aureus gyrase supercoiling assay
(§7) 1 U of S. aureus gyrase was incubated with 0.5 µg of relaxed pBR322 DNA in a 30 µL reaction at
(§8) magnesium acetate, 10 mM DTT, 2 mM ATP, 500 mM potassium glutamate and 0.05 mg/mL
− S. aureus topo IV decatenation assay
(§9) 1 U of S. aureus topo IV was incubated with 20 µg kDNA in a 30 µL reaction at 37 °C for 30
(§10) mM ATP, 350 mM potassium glutamate and 0.05 mg/mL albumin.
(§11) − A. baumannii gyrase supercoiling assay
(§12) 1 U of A. baumannii gyrase was incubated with 0.5 µg of relaxed pBR322 DNA in a 30 µL reaction
(§13) blue), before being loaded on a 1.0% TAE gel run at 80V for 2 hours. Bands were visualised by
(§14) ethidium bromide staining for 20 minutes and destaining for 20 minutes. Gels were scanned using
(§15) documentation equipment (GeneGenius, Syngene, Cambridge, UK) and % inhibition levels were
(§16) measured by determining the relative fluorescence of the supercoiled band using gel scanning
software. […]

A. baumannii topo IV = A. baumannii topo IV (Acinetobacter baumannii, UniProt A0ABX6CMT0); assay: gel-based decatenation assay
Method: In all experiments, the activity of the
as §1, §2, §3, §4, §5, §6
− S. aureus gyrase supercoiling assay
as §7, §8
− S. aureus topo IV decatenation assay
as §9, §10, §11, §12, §13, §14, §15, §16
software. […]

Compound: Cc1[nH]c(C(=O)Nc2nc3c(N4CCOCC4)cc(C(=O)O)cc3s2)c(Cl)c1Cl [7a, 2-(3,4-Dichloro-5-methyl-1H-pyrrole-2-carboxamido)-4-morpholinobenzo[d]thiazole-6-carboxylic Acid]
- IC50 [1]: 17000 nM
- Cumulative % at MIC [2]: 50.0% and 100.0%
- No. of isolates at MIC [2]: 6
- No. of isolates at MIC ([2]; MIC 0.06 µg/mL): 6
- MIC ([2]; isolate IHMA 1123853): ≤ 0.03 µg/mL
- MIC ([2]; isolate IHMA 1130935): ≤ 0.03 µg/mL
- MIC ([2]; isolate IHMA 1130989): 0.06 µg/mL (≈ 0.132 µM)
- MIC ([2]; isolate IHMA 1130991): 0.06 µg/mL (≈ 0.132 µM)
- MIC ([2]; isolate IHMA 1137292): 0.06 µg/mL (≈ 0.132 µM)
- MIC ([2]; isolate IHMA 1145734): ≤ 0.03 µg/mL
- MIC ([2]; isolate IHMA 1145735): ≤ 0.03 µg/mL
- MIC ([2]; isolate IHMA 1165897): ≤ 0.03 µg/mL
- MIC ([2]; isolate IHMA 1194748): ≤ 0.03 µg/mL
- MIC ([2]; isolate IHMA 1194750): 0.06 µg/mL (≈ 0.132 µM)
- MIC ([2]; isolate IHMA 1546199): 0.06 µg/mL (≈ 0.132 µM)
- MIC ([2]; isolate IHMA 1546215): 0.06 µg/mL (≈ 0.132 µM)
- MIC, all isolates ([2]; n = 12): ≤ 0.06 µg/mL
- No. of isolates at MIC [3]: 3 and 6 and 4
- MIC ([3]; H. influenzae IHMA N° 1227715): 0.12 µg/mL (≈ 0.264 µM)
- MIC ([3]; H. influenzae IHMA N° 1241620): 0.25 µg/mL (≈ 0.549 µM)
- MIC ([3]; H. influenzae IHMA N° 1244149): 0.5 µg/mL (≈ 1.1 µM)
- MIC ([3]; H. influenzae IHMA N° 1249803): 0.12 µg/mL (≈ 0.264 µM)
- MIC ([3]; H. influenzae IHMA N° 1254355): 0.25 µg/mL (≈ 0.549 µM)
- MIC ([3]; H. influenzae IHMA N° 1258580): 0.5 µg/mL (≈ 1.1 µM)
- MIC ([3]; H. influenzae IHMA N° 1262734): 0.25 µg/mL (≈ 0.549 µM)
- MIC ([3]; H. influenzae IHMA N° 1272723): 0.25 µg/mL (≈ 0.549 µM)
- MIC ([3]; H. influenzae IHMA N° 1286846): 0.5 µg/mL (≈ 1.1 µM)
- MIC ([3]; H. influenzae IHMA N° 1337530): 0.12 µg/mL (≈ 0.264 µM)
- MIC ([3]; H. influenzae IHMA N° 1440085): 0.5 µg/mL (≈ 1.1 µM)
- MIC ([3]; H. influenzae IHMA N° 1479509): 1 µg/mL (≈ 2.2 µM)
- MIC ([3]; H. influenzae IHMA N° 1952952): 0.25 µg/mL (≈ 0.549 µM)
- MIC ([3]; H. influenzae IHMA N° 2047461): 0.25 µg/mL (≈ 0.549 µM)
- Cumulative % at MIC ([3]; MIC 1 µg/mL): 100.0%
- No. of isolates at MIC ([3]; MIC 1 µg/mL): 1
- MIC, all isolates ([3]; n = 14): ≤ 1 µg/mL
- Cumulative % at MIC (E. faecium (n = 13)): 61.5% and 100.0%
- No. of isolates at MIC (E. faecium (n = 13)): 8 and 5
- MIC (E. faecium (n = 13); E. faecium IHMA N° 1764866): 0.06 µg/mL (≈ 0.132 µM)
- MIC (E. faecium (n = 13); E. faecium IHMA N° 1765436): 0.06 µg/mL (≈ 0.132 µM)
- MIC (E. faecium (n = 13); E. faecium IHMA N° 1765746): 0.06 µg/mL (≈ 0.132 µM)
- MIC (E. faecium (n = 13); E. faecium IHMA N° 1893573): 0.06 µg/mL (≈ 0.132 µM)
- MIC (E. faecium (n = 13); E. faecium IHMA N° 1893846): 0.12 µg/mL (≈ 0.264 µM)
- MIC (E. faecium (n = 13); E. faecium IHMA N° 1893942): 0.12 µg/mL (≈ 0.264 µM)
- MIC (E. faecium (n = 13); E. faecium IHMA N° 1894055): 0.12 µg/mL (≈ 0.264 µM)
- MIC (E. faecium (n = 13); E. faecium IHMA N° 1897027): 0.12 µg/mL (≈ 0.264 µM)
- MIC (E. faecium (n = 13); E. faecium IHMA N° 1897101): 0.06 µg/mL (≈ 0.132 µM)
- MIC (E. faecium (n = 13); E. faecium IHMA N° 1904592): 0.06 µg/mL (≈ 0.132 µM)
- MIC (E. faecium (n = 13); E. faecium IHMA N° 2075051): 0.12 µg/mL (≈ 0.264 µM)
- MIC (E. faecium (n = 13); E. faecium IHMA N° 2077718): 0.06 µg/mL (≈ 0.132 µM)
- MIC (E. faecium (n = 13); E. faecium IHMA N° 2083787): 0.06 µg/mL (≈ 0.132 µM)
- MIC, all isolates (E. faecium (n = 13); n = 13): ≤ 0.12 µg/mL
- Cumulative % at MIC (S. pneumoniae (n = 12); MIC […]): 25.0%
- MIC (S. pneumoniae (n = 12); S. pneumoniae IHMA N° 1775387): 0.5 µg/mL (≈ 1.1 µM)
- MIC (S. pneumoniae (n = 12); S. pneumoniae IHMA N° 1776057): 0.5 µg/mL (≈ 1.1 µM)
- MIC (S. pneumoniae (n = 12); S. pneumoniae IHMA N° 1785617): 0.25 µg/mL (≈ 0.549 µM)
- MIC (S. pneumoniae (n = 12); S. pneumoniae IHMA N° 1800765): 0.5 µg/mL (≈ 1.1 µM)
- MIC (S. pneumoniae (n = 12); S. pneumoniae IHMA N° 1811259): 0.06 µg/mL (≈ 0.132 µM)
- MIC (S. pneumoniae (n = 12); S. pneumoniae IHMA N° 1831562): 0.5 µg/mL (≈ 1.1 µM)
- MIC (S. pneumoniae (n = 12); S. pneumoniae IHMA N° 1902609): 0.5 µg/mL (≈ 1.1 µM)
- MIC (S. pneumoniae (n = 12); S. pneumoniae IHMA N° 1979675): 0.5 µg/mL (≈ 1.1 µM)
- MIC (S. pneumoniae (n = 12); S. pneumoniae IHMA N° 1991963): 0.5 µg/mL (≈ 1.1 µM)
- MIC (S. pneumoniae (n = 12); S. pneumoniae IHMA N° 2057487): 0.5 µg/mL (≈ 1.1 µM)
- MIC (S. pneumoniae (n = 12); S. pneumoniae IHMA N° 2073087): 0.5 µg/mL (≈ 1.1 µM)
- MIC (S. pneumoniae (n = 12); S. pneumoniae IHMA N° 2117109): 0.12 µg/mL (≈ 0.264 µM)
- MIC, all isolates (S. pneumoniae (n = 12); n = 12): ≤ 0.5 µg/mL
- ClH (pred.) (in vitro [4]): 0.05 mL/min
- Clint (pred. in vivo) (in vitro [4]; hepatocytes): 2.1 mL/min
- half-life at 1.5 h, 1 µM (in vitro [4]; hepatocytes): 2.67 h
- hepatocyte CLint at 1.5 h, 1 µM (in vitro [4]; hepatocytes): 9 µL/min/1e6 cells
- Clint (pred. in vivo) (in vitro [5]; human): 630 mL/min
- half-life at 1 h, 1 µM (in vitro [5]; human): 1.72 h
- ClH (pred.) (in vitro [5]; human): 14 mL/min
- Epred (in vitro [5]; human): 0.01
- Clint (pred. in vivo) (in vitro [5]; mouse): 1.3 mL/min
- half-life at 1 h, 1 µM (in vitro [5]; mouse): 1.45 h
- ClH (pred.) (in vitro [5]; mouse): 0.03 mL/min
- Epred (in vitro [5]; mouse): 0.01
- inhibition of Nav1.5 ([6]; 10 µM): no significant inhibition
- Nav1.5 current fraction (normalized to neg. control) ([6]; 10 µM 7a, mean ± SEM): 0.97 ± 0.03
- IC50 (S. aureus DNA gyrase): 1.22 ± 0.04 nM
- IC50 (A. baumannii topo IV): 120 ± 8.34 nM
